# US20040254162A1, “Oxazolidinone derivatives as antimicrobials” (priority 2001, published 2004)
# Like-named read-outs stand apart in the source and are kept apart here.
# Assays:
# [1] = test system: Peptostreptococcus micros; assay: Agar dilution MIC, anaerobes; format: cell-based; settings: single isolates, anaerobic agar dilution
# [2] = test system: MRSE 879 adherent bacteria; assay: Sintered glass adherent bacteria model; settings: MRSE 879, sintered glass adherent bacteria model
# Clostridium perfringens = assay: microbe, parasite or virus in culture; format: cell-based; settings: Clostridium perfringens, read-out: MIC Clostridium perfringens, single isolates, anaerobic agar dilution
# P. acnes = assay: Agar dilution MIC, anaerobes; format: cell-based; settings: Cutibacterium acnes, single isolates, anaerobic agar dilution; read-out: MIC P. acnes
# S. aureus ATCC 25923 = assay: MIC, agar incorporation method; settings: Staphylococcus aureus, ATCC25923, read-out: MIC S. aureus 25923
# S. pneumoniae = assay: Summary of in vitro activity (MIC); settings: Streptococcus pneumoniae
# [3] = test system: Peptostreptococcus prevotii; assay: Agar dilution MIC, anaerobes; format: cell-based; settings: Anaerococcus prevotii, single isolates, anaerobic agar dilution; read-out: MIC Peptostreptococcus prevotii
# Strep. pyog. ATCC 19615 = assay: MIC, agar incorporation method; settings: Streptococcus pyogenes, ATCC19615, read-out: MIC S. pyogenes 19615
# Fusobacterium varium = assay: Agar dilution MIC, anaerobes; format: cell-based; settings: Fusobacterium varium, single isolates, anaerobic agar dilution; read-out: MIC Fusobacterium varium
# S. aureus = assay: Summary of in vitro activity (MIC); settings: Staphylococcus aureus
# [4] = test system: clinically relevant gram positive pathogens; settings: nearly all clinically relevant gram positive pathogens; cited from earlier work
# [5] = Changes in MIC under different conditions: broth MIC; format: cell-based; settings: strain not given
# Prevotella intermedia = assay: Agar dilution MIC, anaerobes; format: cell-based; settings: single isolates, anaerobic agar dilution
# Ent. faecalis ATCC 29212 = assay: MIC, agar incorporation method; settings: Enterococcus faecalis, ATCC29212, read-out: MIC E. faecalis 29212
# [6] = test system: Prevotella (Bacteroides) disiens; assay: Agar dilution MIC, anaerobes; format: cell-based; settings: single isolates, anaerobic agar dilution; read-out: MIC Prevotella (Bacteroides) disiens
# [7] = test system: Peptostreptococcus magnum; assay: Agar dilution MIC, anaerobes; format: cell-based; settings: single isolates, anaerobic agar dilution
# [8] = Changes in MIC under different conditions: agar MIC; format: cell-based; settings: strain not given
# [9] = test system: Peptostreptococcus asaccharolyticus; assay: Agar dilution MIC, anaerobes; format: cell-based; settings: single isolates, anaerobic agar dilution
# Fusobacterium nucleatum = assay: Agar dilution MIC, anaerobes; format: cell-based; settings: single isolates, anaerobic agar dilution
# [10] = test system: Prevotella melaninogenica; assay: Agar dilution MIC, anaerobes; format: cell-based; settings: single isolates, anaerobic agar dilution
# Clostridium camis = assay: Agar dilution MIC, anaerobes; format: cell-based; settings: Clostridium; single isolates, anaerobic agar dilution; read-out: MIC Clostridium camis
# [11] = test system: Mycobacterium tuberculosis
# Fusobacterium montiferum = assay: Agar dilution MIC, anaerobes; format: cell-based; settings: Fusobacterium, single isolates, anaerobic agar dilution; read-out: MIC Fusobacterium montiferum
# G +ve bacteria = assay: Summary of in vitro activity (MIC)
# [12] = test system: Porphyromonas asaccharolytica; assay: Agar dilution MIC, anaerobes; format: cell-based; settings: Porphyromonas asaccharolytica; single isolate, anaerobic agar dilution; read-out: MIC Porphyromonas asaccharolytica
# VRE 6A (Ent. faecium 6A) = assay: MIC, agar incorporation method; settings: Enterococcus, VRE, read-out: MIC VRE 6A
# MRSA 562 = assay: MIC, agar incorporation method; settings: Staphylococcus aureus, MRSA
# Strep. pne. ATCC 6303 = assay: MIC, agar incorporation method; settings: Streptococcus pneumoniae, ATCC6303, read-out: MIC S. pneum 6303
# Porphyromonas gingivalis = assay: Agar dilution MIC, anaerobes; format: cell-based; settings: Porphyromonas gingivalis; single isolate, anaerobic agar dilution; read-out: MIC Porphyromonas gingivalis
# MRSA 15187 = assay: MIC, agar incorporation method; settings: Staphylococcus aureus, MRSA, read-out: MIC MRSA 15187
# [13] = test system: Mycobacterium avium intracellulare; assay: Agar dilution method, mycobacteria; format: cell-based
# Fusobacterium necrogenes = assay: Agar dilution MIC, anaerobes; format: cell-based; settings: Fusobacterium necrogenes; single isolate, anaerobic agar dilution; read-out: MIC Fusobacterium necrogenes
# [14] = in vivo; cited from earlier work
# [15] = read-out: Geometric Mean of in vitro activity (MIC)
smiles,measurement,setting,value
CC(=O)NC[C@H]1CN(c2ccc(N3CCOCC3)c(F)c2)C(=O)O1 [Linezolid],MIC,"[1]; Parvimonas micra, read-out: MIC Peptostreptococcus micros",0.5 µg/mL
same,MIC Peptostreptococcus micros,[1],1 µg/mL
same,concentration which would kill adherent bacteria,[2],32 µg/mL
same,MIC,Clostridium perfringens,2 µg/mL
same,MIC,P. acnes,0.5 µg/mL
same,MIC,S. aureus ATCC 25923,2 µg/mL
same,MIC50,S. pneumoniae,0.5 µg/mL
same,MIC90,S. pneumoniae,2 µg/mL
same,MIC,S. pneumoniae; [15],0.6 µg/mL
same,MIC,[3],0.5 µg/mL
same,MIC,Strep. pyog. ATCC 19615,2 µg/mL
same,MIC,Fusobacterium varium,1 µg/mL
same,MIC50,S. aureus,2 µg/mL
same,MIC90,S. aureus,4 µg/mL
same,MIC,S. aureus; [15],2.38 µg/mL
same,MIC90,[4],2 to 4 µg/mL
same,Broth MIC +50% Sheep serum,[5]; +50% sheep serum,2 µg/mL
same,Broth MIC Normal MH broth,[5]; normal MH broth,1 µg/mL
same,MIC,"Prevotella intermedia; Prevotella intermedia, read-out: MIC Prevotella intermedia",0.5 µg/mL
same,MIC Prevotella intermedia,Prevotella intermedia,1 µg/mL
same,MIC,Ent. faecalis ATCC 29212,2 µg/mL
same,MIC,[6],4 µg/mL
same,MIC,"[7]; Peptostreptococcus, read-out: MIC Peptostreptococcus magnum",2 µg/mL
same,MIC Peptostreptococcus magnum,[7],1 µg/mL
same,Agar MIC,[8],2 µg/mL
same,MIC,[9]; Peptoniphilus asaccharolyticus,0.5 µg/mL
same,MIC Peptostreptococcus asaccharolyticus,[9],1 µg/mL
same,MIC,"Fusobacterium nucleatum; Fusobacterium nucleatum, read-out: MIC Fusobacterium nucleatum",0.5 µg/mL
same,MIC Fusobacterium nucleatum,Fusobacterium nucleatum,1 µg/mL
same,MIC,"[10]; Prevotella melaninogenica, read-out: MIC Prevotella melaninogenica",1 µg/mL
same,MIC Prevotella melaninogenica,[10],2 µg/mL
same,MIC,Clostridium camis,2 µg/mL
same,G.M.,[11],8 µg/mL
same,MIC,Fusobacterium montiferum,0.25 µg/mL
same,MIC50,G +ve bacteria,2 µg/mL
same,MIC90,G +ve bacteria,4 µg/mL
same,MIC,[12],1 µg/mL
same,MIC,VRE 6A (Ent. faecium 6A),2 µg/mL
same,MIC,MRSA 562,2 µg/mL
same,MIC,MRSA 562; read-out: MIC MRSA 562,2 µg/mL
same,MIC,Strep. pne. ATCC 6303,2 µg/mL
same,MIC,Porphyromonas gingivalis,1 µg/mL
same,MIC,MRSA 15187,1 µg/mL
same,G.M.,[13],20.587 µg/mL
same,MIC50,"[13]; Mycobacterium avium, 504 h, Middlebrook 7H10 agar, 21 days, read-out: MIC50",16 µg/mL
same,MIC90,"[13]; Mycobacterium avium, 504 h, Middlebrook 7H10 agar, 21 days, read-out: MIC90",64 µg/mL
same,MIC,Fusobacterium necrogenes,0.5 µg/mL
same,Cmax,[14],12000 to 16000 ng/mL
